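Briefly, cells in 96-well plates were exposed to five compound concentrations for 48 h, and endpoints were estimated by linear interpolation. Here, GI50 denotes the concentration required for 50% inhibition of growth.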 Activity calls are given as the source filed them. Cut-off read from the data, not from the text of the source: active = GI50 up to about 1.1 µM and inactive = higher.
What was measured:
Assay in all cases: NCI tumour cell line growth inhibition, 48 h
DLD-1 = test system: DLD-1
DMS-114 = test system: DMS-114
DMS-273 = test system: DMS-273
HOP-18 = test system: HOP-18
KM-20L2 = test system: KM-20L2
M19-MEL = test system: M19-MEL
RXF 631 = test system: RXF 631
SNB-78 = test system: SNB-78
BT-549 = test system: BT-549

Measured: GI50

c1ccc([P+](CCC[P+](c2ccccc2)(c2ccccc2)c2ccccc2)(c2ccccc2)c2ccccc2)cc1
inactive: DLD-1 56.6 µM | DMS-114 16.5 µM | DMS-273 9.91 µM | HOP-18 54.7 µM | KM-20L2 33.5 µM | M19-MEL 19.9 µM | RXF 631 > 100 µM | SNB-78 52.8 µM

Cc1ccc(C2=NN(C)COC2C(F)(F)F)cc1 (stereo not given)
inactive: DLD-1 > 100 µM | DMS-114 > 100 µM | DMS-273 > 100 µM | HOP-18 > 100 µM | KM-20L2 > 100 µM | M19-MEL > 100 µM | RXF 631 > 100 µM | SNB-78 > 100 µM

C/C(=C1/N=C(c2cc([N+](=O)[O-])ccc2Cl)N(c2cccc(C)c2)C1=O)c1cc2ccccc2oc1=O
inactive: DLD-1 31.7 µM | DMS-114 27.1 µM | DMS-273 80.7 µM | HOP-18 74.6 µM | KM-20L2 > 100 µM | M19-MEL 66.2 µM | RXF 631 > 100 µM | SNB-78 > 100 µM

CCOC(=O)N1CCN(C=S)CC1
inactive: DLD-1 > 100 µM | DMS-114 > 100 µM | DMS-273 > 100 µM | HOP-18 > 100 µM | KM-20L2 > 100 µM | M19-MEL > 100 µM | RXF 631 > 100 µM | SNB-78 > 100 µM

O=C(/C=C/c1ccccc1Cl)c1ccc(Cl)cc1Cl
inactive: DLD-1 17.3 µM | DMS-114 11.8 µM | DMS-273 15.7 µM | HOP-18 17 µM | KM-20L2 15.1 µM | M19-MEL 18 µM | RXF 631 19 µM | SNB-78 19.1 µM

COC1=C2CC(C)CC(OC)C(O)C(C)/C=C(\C)C(OC(N)=O)C(OC)/C=C\C=C(/C)C(=O)NC(=C(/C=N/N3CCCCC3)C1=O)C2=O (stereo not given)
inactive: DLD-1 8.47 µM | DMS-273 13.6 µM | HOP-18 11.9 µM | KM-20L2 5 µM | M19-MEL 7 µM | RXF 631 8.28 µM | SNB-78 12.4 µM

CCOC(=O)NC(=O)c1cn(CCN2CCN(c3ncnc4[nH]cnc34)CC2)c(=O)[nH]c1=O
inactive: DLD-1 > 100 µM | DMS-114 > 100 µM | HOP-18 > 100 µM | KM-20L2 > 100 µM | M19-MEL > 100 µM | RXF 631 > 100 µM

COc1ccccc1NC(=O)C1=C(C)NC(C)=C(C(=O)Nc2ccccc2OC)C1c1cccc2ccccc12
inactive: DLD-1 38.7 µM | DMS-114 25.6 µM | DMS-273 80.9 µM | HOP-18 76.7 µM | KM-20L2 > 100 µM | M19-MEL 90.4 µM | RXF 631 87.9 µM | SNB-78 4.44 µM

CC(C)(C)c1cc(C(OCCl)(C(F)(F)F)C(F)(F)F)c2c(c1)C(C(F)(F)F)(C(F)(F)F)OC21c2ccccc2C(=O)c2ccccc21
inactive: DLD-1 > 100 µM | DMS-114 > 100 µM | DMS-273 > 100 µM | HOP-18 > 100 µM | KM-20L2 > 100 µM | M19-MEL > 100 µM | RXF 631 > 100 µM | SNB-78 > 100 µM

CCO/C(CCn1[nH]c(=O)c(Cl)c(Cl)c1=O)=N\NC(=O)C(=O)NN
inactive: DLD-1 > 100 µM | DMS-114 > 100 µM | DMS-273 > 100 µM | HOP-18 > 100 µM | KM-20L2 > 100 µM | M19-MEL > 100 µM | RXF 631 > 100 µM

C[N+](C)(C)CC(=O)N/N=C(/Cc1nc2c3c(ccc2nc1O)C(=O)c1ccccc1C3=O)C(=O)Nc1ccc(Cl)c(Cl)c1
inactive: DLD-1 17.9 µM | DMS-114 27 µM | KM-20L2 > 100 µM | M19-MEL 38.2 µM | RXF 631 76.6 µM

Cc1cccc(NC(=O)Cc2nc3ccccc3s2)c1C
inactive: DLD-1 > 100 µM | DMS-114 > 100 µM | DMS-273 > 100 µM | KM-20L2 > 100 µM | M19-MEL > 100 µM | RXF 631 > 100 µM

COc1ccc2nc3cc(Cl)ccc3c(Sc3ccc([N+](=O)[O-])cc3)c2c1
inactive: DLD-1 > 10 µM | DMS-114 > 10 µM | DMS-273 > 10 µM | HOP-18 > 10 µM | KM-20L2 > 10 µM | M19-MEL > 10 µM | RXF 631 > 10 µM | SNB-78 > 10 µM

O=C1c2c(n(Cc3ccccc3)c(=O)n2Cc2ccccc2)C(=O)N1Cc1ccccc1
inactive: DLD-1 63 µM | DMS-114 34.6 µM | DMS-273 31.4 µM | HOP-18 > 100 µM | KM-20L2 52.7 µM | M19-MEL > 100 µM | RXF 631 62.7 µM | SNB-78 > 100 µM

C#CCNC(=O)ON1C(=O)CCC1=O
inactive: DLD-1 > 100 µM | DMS-273 > 100 µM | HOP-18 > 100 µM | KM-20L2 > 100 µM | M19-MEL > 100 µM | RXF 631 > 100 µM | SNB-78 > 100 µM

CC1=C(C(=O)NCc2ccccc2)C(c2ccc(N(C)C)cc2)C(C(=O)NCc2ccccc2)=C(C)N1
inactive: DLD-1 > 100 µM | DMS-114 > 100 µM | DMS-273 > 100 µM | KM-20L2 > 100 µM | M19-MEL > 100 µM | RXF 631 > 100 µM | SNB-78 > 100 µM

N=S(c1ccccc1[N+](=O)[O-])c1ccccc1[N+](=O)[O-]
inactive: BT-549 1.62 µM | DMS-273 2.16 µM | HOP-18 6.11 µM | M19-MEL 3.3 µM | RXF 631 1.8 µM | SNB-78 2.68 µM

c1ccc(CNc2ccc3[nH]c4cnccc4c3c2)cc1
inactive: DLD-1 16.6 µM | DMS-114 14.8 µM | DMS-273 19.8 µM | KM-20L2 16.2 µM | M19-MEL 18.7 µM | RXF 631 20.6 µM | SNB-78 20.9 µM

O=C(Cc1nc2ccccc2c(=O)n1-c1c(Cl)cccc1Cl)c1ccncc1
inactive: DLD-1 26.7 µM | DMS-114 25.2 µM | DMS-273 19.4 µM | HOP-18 33.8 µM | KM-20L2 27.5 µM | M19-MEL 20.3 µM | RXF 631 23.9 µM | SNB-78 34.1 µM

CCCCCCCCCCCC1CC(=O)NCCCN(C)CCCCN(C)CCCN1C (stereo not given) [BUDMUNCHIAMINE A]
inactive: DLD-1 1.6 µM | DMS-114 1.78 µM | DMS-273 1.24 µM | HOP-18 1.77 µM | KM-20L2 1.65 µM | M19-MEL 1.76 µM | SNB-78 1.79 µM

Source: ChEMBL document CHEMBL1201862, “PubChem BioAssay data set” (2004)
